Assay results published in ChEMBL document CHEMBL4680267, “Design, synthesis and biological evaluation of 7-substituted 4-phenyl-6H-imidazo[1,5-a]thieno[3,2-f] [1,4]diazepines as safe anxiolytic agents” (Eur J Med Chem, 2020).

What was measured:
Mus musculus [1] = assay: Anxiolytic activity in mouse assessed as increase in time spent in lighted compartment at 10 mg/kg, po measured after 30 mins by light-dark box test (reference value: 122.3 +/- 8.5 secs); format: functional; details: 0.5 h
[2] = Displacement of [3H]-Flumazenil from Central type benzodiazepine receptor in rat cerebral cortex membrane incubated for 90 mins by liquid scintillation counting method; format: cell membranes
Mus musculus [3] = assay: Anticonvulsive activity in mouse assessed as protection against pentylenetetrazole-induced seizure at 10 mg/kg, po administered 30 mins prior to pentylenetetrazole challenge and measured for 30 mins; format: functional; details: time 60 min, 1 h
[4] = Displacement of [3H]diazepam from Benzodiazepine receptor in rat cerebral cortex membrane; format: cell membranes
Mus musculus [5] = assay: Anxiolytic activity in mouse assessed as increase in time spent in lighted compartment at 30 mg/kg, po measured after 30 mins by light-dark box test (reference value: 122.3 +/- 8.5 secs); format: functional; details: 0.5 h
Rattus norvegicus = species on record: Rattus norvegicus; assay: Displacement of [3H]-Flumazenil from Central type benzodiazepine receptor in rat cerebral cortex membrane at 10 uM incubated for 90 mins by liquid scintillation counting method relative to control; format: cell membranes
Mus musculus [6] = assay: Anticonvulsive activity in mouse assessed as protection against pentylenetetrazole-induced seizure at 30 mg/kg, po administered 30 mins prior to pentylenetetrazole challenge and measured for 30 mins; format: functional; details: time 60 min, 1 h
Mus musculus [7] = assay: Anti-amnesic activity in mouse model of scopolamine-induced cognitive deficit assessed as latency time to enter dark compartment in training session at 10 mg/kg, po and mesured for 30 mins by passive avoidance test (reference value: 14.2 +/- 2.2 secs); format: functional; details: 0.5 h
Mus musculus [8] = assay: Anti-amnesic activity in mouse model of scopolamine-induced cognitive deficit assessed as latency time to enter dark compartment in training session at 30 mg/kg, po and measured for 30 mins by passive avoidance test (reference value: 14.2 +/- 2.2 secs); format: functional; details: 0.5 h
Mus musculus [9] = assay: Anti-amnesic activity in mouse model of scopolamine-induced cognitive deficit assessed as latency time to enter dark compartment in retension session at 10 mg/kg, po and measured after 24 hrs by passive avoidance test (reference value: 46.2 +/- 8.9 secs); format: functional
Mus musculus [10] = assay: Anti-amnesic activity in mouse model of scopolamine-induced cognitive deficit assessed as latency time to enter dark compartment in retension session at 30 mg/kg, po and measured after 24 hrs by passive avoidance test (reference value: 46.2 +/- 8.9 secs); format: functional
[11] = Hypnotic activity in mouse assessed as phenobarbital induced sleep induction time at 30 mg/kg, po administered 30 mins prior to phenobarbital challenge and measured for 30 mins (reference value: 4.4 +/- 1.1 min); format: ADME, organism-based; details: in vivo, 1 h, time 60 min
[12] = Hypnotic activity in mouse assessed as phenobarbital induced sleep endurance time at 30 mg/kg, po administered 30 mins prior to phenobarbital challenge and measured for 30 mins (reference value: 27.4 +/- 2.3 min); format: ADME, organism-based; details: in vivo, 1 h, time 60 min
[13] = Effect on motor coordination in mouse assessed as number of falls from rotarod at 30 mg/kg, po measured for 30 mins by rotarod test (reference value: 2.2 +/- 0.2); format: ADME, organism-based; details: in vivo, 0.5 h
[14] = Effect on locomotor activity in mouse at 30 mg/kg, po measured after 30 mins by hole-board test; format: ADME, organism-based; details: in vivo, 0.5 h
[15] = Effect on explorative activity in mouse assessed as exploration of holes at 30 mg/kg, po measured after 30 mins by hole-board test; format: ADME, organism-based; details: in vivo, 0.5 h
[16] = Displacement of [3H]flunitrazepam from Benzodiazepine receptor in Sprague-Dawley rat cerebral cortex membrane preincubated for 10 mins followed by [3H]flunitrazepam addition and measured after 60 mins by liquid scintillation spectroscopy analysis; format: cell membranes
[17] = Displacement of [3H]flunitrazepam from Benzodiazepine receptor in Sprague-Dawley rat cerebral cortex membrane measured after 30 mins by liquid scintillation spectrometry analysis; format: cell membranes
[18] = Hypnotic activity in mouse assessed as phenobarbital induced sleep endurance time at 2 mg/kg, sc administered 30 mins prior to phenobarbital challenge and measured for 30 mins (reference value: 27.4 +/- 2.3 min); format: ADME, organism-based; details: in vivo, 1 h, time 60 min

SMILES | Time (Mus musculus [1]) [min] | IC50 [2] [nM] | Activity (Mus musculus [3]) [%] | IC50 [4] [nM] | Time (Mus musculus [5]) [s] | inhibition (Rattus norvegicus) [%] | Activity (Mus musculus [6]) [%] | Time (Mus musculus [7]) [s] | Time (Mus musculus [8]) [s] | Time (Mus musculus [9]) [s] | Time (Mus musculus [10]) [s] | Time [11] [min] | Time [12] [min] | Activity [13] | Activity [14] | Activity [15] | IC50 [16] [nM] | IC50 [17] [nM] | Time [18] [min]
CN1C(=O)CN=C(c2ccccc2)c2cc(Cl)ccc21 [DIAZEPAM] | 165.6 | 18.5 | 100 |  |  |  |  |  |  |  |  |  |  |  |  |  |  |  | 
CCOC(=O)c1ncn2c1CN(C)C(=O)c1cc(F)ccc1-2 [FLUMAZENIL] |  |  |  | 2.3 |  |  |  |  |  |  |  |  |  |  |  |  |  |  | 
CCOC(=O)c1ncn2c1CN=C(c1cccc(F)c1)c1ccsc1-2 | 111.3 | 8.66 |  |  | 163.9 | > 80 | 20 | 14.9 | 17.4 | 39.2 | 75.3 | 5.2 | 24.9 | 2.5 | 27.3 | 15.3 |  |  | 
CC(C)(C)OC(=O)c1ncn2c1CN=C(c1cccc(F)c1)c1ccsc1-2 | 118.3 | 9.61 |  |  | 143.8 | > 80 | 0 | 18.2 | 15.6 | 51.4 | 72.5 | 3.5 | 25.9 | 1.9 | 29.5 | 17.5 |  |  | 
CCOC(=O)c1ncn2c1CN=C(c1ccc(F)cc1)c1ccsc1-2 | 109.8 | 16.2 |  |  | 151.2 | > 80 | 0 | 13.9 | 14.7 | 55.8 | 89.2 | 5.5 | 29.2 | 2.2 | 34.5 | 15.8 |  |  | 
CCc1cc2c(s1)-n1c(C)nnc1CN=C2c1ccccc1Cl [ETIZOLAM] |  |  |  |  |  |  |  |  |  |  |  |  |  |  |  |  | 4.5 |  | 
CCOC(=O)c1ncn2c1CN=C(c1ccccc1)c1ccsc1-2 | 131.3 | 11.7 |  |  | 166.2 | > 80 | 10 | 13.6 | 18.1 | 54.1 | 88.6 | 3.9 | 23.8 | 1.9 | 28.2 | 19.1 |  |  | 
Cc1nnc2n1-c1sc(Br)cc1C(c1ccccc1Cl)=NC2 [BROTIZOLAM] |  |  |  |  |  |  |  |  |  |  |  |  |  |  |  |  |  | 2.6 | 
CC(C)(C)OC(=O)c1ncn2c1CN=C(c1ccccc1)c1ccsc1-2 | 113.6 | 5.19 |  |  | 151.4 | > 80 | 20 | 15.4 | 17.2 | 46.9 | 70.3 | 4.4 | 28.8 | 2.4 | 33.4 | 15.9 |  |  | 
CC(N)Cc1ccccc1 (configuration not stated) [AMPHETAMINE] |  |  |  |  |  |  |  |  |  |  |  |  |  |  |  |  |  |  | 22.2
CC(C)(C)OC(=O)c1ncn2c1CN=C(c1ccc(F)cc1)c1ccsc1-2 | 145.6 | 10.2 | 20 |  | 169.4 | > 80 | 40 | 12.8 | 16.5 | 67.1 | 85.9 | 4.7 | 27.2 | 2.1 | 26.7 | 17.5 |  |  | 
